Experimental data published in ChEMBL document CHEMBL4483862, “Open-source discovery of chemical leads for next-generation chemoprotective antimalarials” (2018).

Tested on: Plasmodium berghei
Assay: Luciferase/luciferin-expressing antifolate-resistant parasites were used to infect a culture of HepG2 cells that were pre-incubated with compounds. Infected hepatocytes emit light due to the luciferase reaction. Assay results are presented as the percent inhibition of light emission compared to control. […]
Type: functional
Conditions: sporozoite; for IC90: read-out: LUCIFERASE INFECTION ASSAY - IC90
[1] = read-out: LUCIFERASE INFECTION ASSAY - IC50

Row | Structure (SMILES) | IC90 | IC50 [1] | other results
1 | Cn1ccnc1C(=O)NNc1ncc(C(F)(F)F)cc1Cl | 1.21 µM |  | IC50 (HEPG2TOX_HILL_SLOPE 1.64, HEPG2TOX_R_SQUARED 0.948, PBLUC_HILL_SLOPE 15.2, PBLUC_R_SQUARED 0.698, read-out: LUCIFERASE INFECTION ASSAY - IC50): 1.04 µM
2 | CN(C)C(=O)c1ccc(-c2cc3c(Nc4cccc(OC(F)(F)F)c4)nccc3[nH]2)cc1 | > 10 µM |  | IC50 (HEPG2TOX_HILL_SLOPE 8.24, HEPG2TOX_R_SQUARED 0.393, PBLUC_HILL_SLOPE 3.02, PBLUC_R_SQUARED 0.574, read-out: LUCIFERASE INFECTION ASSAY - IC50): 4.92 µM
3 | CN1CCN(c2ccc(-c3cn4c(-c5ccc(F)c(Cl)c5)cnc4cn3)cn2)CC1 | > 7.8 µM | > 7.8 µM | 
4 | Cc1c(C#N)nn(-c2cccc(Cl)c2)c(=O)c1C#N | > 12.2 µM | > 12.2 µM | 
5 | COc1ccc(/C=N/OCC(=O)Nc2ccccc2C(F)(F)F)cc1 | > 10 µM |  | IC50 (PBLUC_HILL_SLOPE 0.525, PBLUC_R_SQUARED 0.458, read-out: LUCIFERASE INFECTION ASSAY - IC50): > 10 µM
6 | COc1ccc(C(C)C)cc1-c1cnc(N)c(-c2cccc(C(F)(F)F)c2)c1 | > 8.54 µM |  | IC50 (HEPG2TOX_HILL_SLOPE 7.33, HEPG2TOX_R_SQUARED 0.431, PBLUC_HILL_SLOPE 11.3, PBLUC_R_SQUARED 0.541, read-out: LUCIFERASE INFECTION ASSAY - IC50): 8.01 µM
7 | COC(=O)c1occc1/C=C/C(=O)C12CC3CC(CC(C3)C1)C2 | 7.04 µM |  | IC50 (HEPG2TOX_HILL_SLOPE 9.64, HEPG2TOX_R_SQUARED 0.941, PBLUC_HILL_SLOPE 4.67, PBLUC_R_SQUARED 0.564, read-out: LUCIFERASE INFECTION ASSAY - IC50): 4.4 µM
8 | CCOc1ccc(C(=O)NNC(=O)c2cc(Cl)ccc2O)cc1 | > 10 µM |  | IC50 (HEPG2TOX_HILL_SLOPE 1.98, HEPG2TOX_R_SQUARED 0.918, PBLUC_HILL_SLOPE 3.04, PBLUC_R_SQUARED 0.138, read-out: LUCIFERASE INFECTION ASSAY - IC50): 7.76 µM
9 | Cc1[nH]c2ccc(C(=O)Nc3ccc(N4CCOCC4)nc3)cc2c1C | > 10 µM |  | IC50 (FFLUC_HILL_SLOPE 22.7, FFLUC_R_SQUARED 0.475, read-out: LUCIFERASE INFECTION ASSAY - IC50): > 10 µM
10 | COc1cc(C(=O)OC(C)c2ccc(F)cc2)cc(OC)c1OC (centres undefined) | > 10 µM |  | IC50 (PBLUC_HILL_SLOPE 3.41, PBLUC_R_SQUARED 0.0259, read-out: LUCIFERASE INFECTION ASSAY - IC50): 9.26 µM
11 | CCc1ccc(-n2nnnc2-c2cnc(N)nc2-c2ccccc2)cc1 | 1.61 µM |  | IC50 (HEPG2TOX_HILL_SLOPE 0.931, HEPG2TOX_R_SQUARED 0.943, PBLUC_HILL_SLOPE 1.76, PBLUC_R_SQUARED 0.648, read-out: LUCIFERASE INFECTION ASSAY - IC50): 0.463 µM
12 | COc1ccc(CN(CC(=O)NCCc2ccc(F)cc2)C(C)Cc2cccs2)cc1 (centres undefined) | > 10 µM | > 10 µM | 
13 | CC(C)C(CNc1ncnc2cc(Cl)ccc12)N1CCN(C)CC1 (centres undefined) | > 10 µM |  | IC50 (HEPG2TOX_HILL_SLOPE 6.21, HEPG2TOX_R_SQUARED 0.178, read-out: LUCIFERASE INFECTION ASSAY - IC50): > 10 µM
14 | O=C(NC1CCCC1)c1ccc(-c2cn3c(-c4ccc(Cl)cc4)cnc3cn2)cc1 | 3.49 µM |  | IC50 (HEPG2TOX_HILL_SLOPE 3.94, HEPG2TOX_R_SQUARED 0.381, PBLUC_HILL_SLOPE 3.66, PBLUC_R_SQUARED 0.738, read-out: LUCIFERASE INFECTION ASSAY - IC50): 1.91 µM
15 | CN(C)c1ccc(C(=O)Oc2ccc(-c3nnco3)cc2)cn1 | > 10 µM | > 10 µM | 
16 | CC(C)Sc1ncccc1C(=O)N1CCN(c2oc(C3CC3)nc2C#N)CC1 | > 10 µM | > 10 µM | 
17 | O=C1N=C(NC2CCCC2)S/C1=C\c1ccc(Cl)cc1 | > 10 µM | > 10 µM | 
18 | Cn1nc(C(C)(C)C)cc1NC(=O)Nc1cc(Cl)cc(Cl)c1 | > 9.67 µM | > 9.67 µM | 
19 | Cn1c(NCC2CC2)nc2cnc(-c3cccc(Oc4ccccc4)c3)cc21 | > 10 µM | 5.67 µM | 
20 | COc1cc2[nH]c(C(=O)Nc3cccc(C(F)(F)F)c3)cc2c(OC)c1OC | 8.28 µM | 7.63 µM | 
21 | Cc1cc(C(=O)CSc2nc3ccccc3c(=O)n2-c2ccc(OC(F)F)cc2)c(C)n1-c1ccc(F)c(Cl)c1 | > 10 µM |  | IC50 (FFLUC_HILL_SLOPE 1.77, FFLUC_R_SQUARED 0.792, PBLUC_HILL_SLOPE 12.5, PBLUC_R_SQUARED 0.0853, read-out: LUCIFERASE INFECTION ASSAY - IC50): 9.61 µM

Row | Structure (SMILES) | IC90 | IC50 [1] | other results
22 | CC(=O)Nc1cccc(-c2cn3c(-c4ccc5c(ccn5C)c4)cnc3cn2)c1 | 7.79 µM |  | IC50 (HEPG2TOX_HILL_SLOPE 2.25, HEPG2TOX_R_SQUARED 0.952, PBLUC_HILL_SLOPE 1.38, PBLUC_R_SQUARED 0.642, read-out: LUCIFERASE INFECTION ASSAY - IC50): 1.59 µM
23 | CC(=O)c1c[nH]c(C(=O)Nc2nc(C)c(-c3ccccn3)s2)c1 | > 10 µM | > 10 µM | 
24 | O=C(CCn1c(-c2ccc(F)cc2)n[nH]c1=S)Nc1nc2c(s1)CCCC2 | > 10 µM |  | IC50 (PBLUC_HILL_SLOPE 2.35, PBLUC_R_SQUARED 0.213, read-out: LUCIFERASE INFECTION ASSAY - IC50): 4.33 µM
25 | O=C1C=C(c2ccc(Cl)cc2)C(=O)N1Nc1ccc(Cl)cc1Cl | > 8.98 µM |  | IC50 (FFLUC_HILL_SLOPE 15.4, FFLUC_R_SQUARED 0.324, HEPG2TOX_HILL_SLOPE 12.8, HEPG2TOX_R_SQUARED 0.543, PBLUC_HILL_SLOPE 10.1, PBLUC_R_SQUARED 0.012, read-out: LUCIFERASE INFECTION ASSAY - IC50): 8.35 µM
26 | Nn1c(SCC(=O)c2c[nH]c3ccccc23)nnc1C(F)(F)F | 8.78 µM |  | IC50 (HEPG2TOX_HILL_SLOPE 1.03, HEPG2TOX_R_SQUARED 0.976, PBLUC_HILL_SLOPE 0.599, PBLUC_R_SQUARED 0.712, read-out: LUCIFERASE INFECTION ASSAY - IC50): 0.224 µM
27 | Fc1ccc(-c2cnc3cnc(-c4ccccc4Cl)cn23)cc1Cl | > 9.21 µM |  | IC50 (PBLUC_HILL_SLOPE 3.59, PBLUC_R_SQUARED 0.419, read-out: LUCIFERASE INFECTION ASSAY - IC50): 8.08 µM
28 | CC(c1cccc(NC(=O)c2ccccc2)c1)N(C)c1ccc(C#N)cn1 (centres undefined) | > 10 µM |  | IC50 (PBLUC_HILL_SLOPE 1.47, PBLUC_R_SQUARED 0.583, read-out: LUCIFERASE INFECTION ASSAY - IC50): 3.04 µM
29 | O=C(Nc1ccc(SC(F)(F)F)cc1)N1CCN(c2nc3ccc(Cl)cc3s2)CC1 | > 6.98 µM |  | IC50 (HEPG2TOX_HILL_SLOPE 11, HEPG2TOX_R_SQUARED 0.778, PBLUC_HILL_SLOPE 2.23, PBLUC_R_SQUARED 0.377, read-out: LUCIFERASE INFECTION ASSAY - IC50): 3.77 µM
30 | COc1ccc(-c2cc(-c3cc(C)ccc3O)c3c(n2)-c2ccccc2C3=O)cc1 | > 10 µM |  | IC50 (PBLUC_HILL_SLOPE 6.66, 3.32, PBLUC_R_SQUARED 0.385, 0.180, read-out: LUCIFERASE INFECTION ASSAY - IC50): 9.15 µM
31 | CCC(C)NC(=O)c1c(NC(=O)c2cccc(OC)c2)nc2ccc(C)cn12 (centres undefined) | > 8.67 µM |  | IC50 (FFLUC_HILL_SLOPE 19.6, FFLUC_R_SQUARED 0.348, HEPG2TOX_HILL_SLOPE 6.15, HEPG2TOX_R_SQUARED 0.729, PBLUC_HILL_SLOPE 3.4, PBLUC_R_SQUARED 0.659, read-out: LUCIFERASE INFECTION ASSAY - IC50): 5.09 µM
32 | CN1/C(=C\C(=O)C[n+]2ccc3ccccc3c2)C(C)(C)c2ccccc21 | 1.83 µM | 1.05 µM | 
33 | O=C(c1[nH]nc2ccccc12)N1CCN(S(=O)(=O)c2cccs2)CC1 | > 10 µM |  | IC50 (PBLUC_HILL_SLOPE 2.58, PBLUC_R_SQUARED 0.457, read-out: LUCIFERASE INFECTION ASSAY - IC50): 7.61 µM
34 | CCn1c(NC(=O)CCc2ccc3c(c2)OCCO3)nc2ccccc21 | > 10 µM |  | IC50 (PBLUC_HILL_SLOPE 14.7, PBLUC_R_SQUARED 0.597, read-out: LUCIFERASE INFECTION ASSAY - IC50): 9.02 µM
35 | COc1ccc(-c2cnc3ccc(-c4cccc(C(F)(F)F)c4)nn23)cc1OC | 9.93 µM |  | IC50 (PBLUC_HILL_SLOPE 15.4, PBLUC_R_SQUARED 0.158, read-out: LUCIFERASE INFECTION ASSAY - IC50): 8.61 µM
36 | CN1CCCN(C(=O)CCNC(=O)/C=C/c2ccco2)c2nc3ccccc3nc21 | > 10 µM |  | IC50 (PBLUC_HILL_SLOPE 1.1, PBLUC_R_SQUARED 0.699, read-out: LUCIFERASE INFECTION ASSAY - IC50): 1.78 µM
37 | COc1cc(-c2[nH]nc3nccc(/C=C/c4ccccc4)c23)cc(OC)c1OC | 0.962 µM |  | IC50 (HEPG2TOX_HILL_SLOPE 1.93, HEPG2TOX_R_SQUARED 0.947, PBLUC_HILL_SLOPE 2.35, PBLUC_R_SQUARED 0.701, read-out: LUCIFERASE INFECTION ASSAY - IC50): 0.378 µM
38 | Cc1occc1C(=O)Nc1ccc(Cl)c(C(F)(F)F)c1 | > 10 µM |  | IC50 (PBLUC_HILL_SLOPE 1.47, PBLUC_R_SQUARED 0.656, read-out: LUCIFERASE INFECTION ASSAY - IC50): 6.43 µM
39 | CC(c1ccc(-c2ccccc2)c(F)c1)c1nn2c(-c3ccco3)nnc2s1 (centres undefined) | 2.45 µM | 0.85 µM | 
40 | COC(=O)c1cccc(OC(=O)/C=C/c2ccc(-c3ccccc3)s2)c1 | > 10 µM | > 10 µM | 
41 | COc1cccc(C(=O)OCC(=O)c2c[nH]c3ccccc23)c1O | > 10 µM | > 10 µM | 
42 | COc1ccc(-c2cc(-c3ccc4ccccc4c3)n(C)c2-c2ccc(F)cc2)cc1 | > 8.1 µM |  | IC50 (FFLUC_HILL_SLOPE 0.642, FFLUC_R_SQUARED 0.523, PBLUC_HILL_SLOPE 1.6, PBLUC_R_SQUARED 0.413, read-out: LUCIFERASE INFECTION ASSAY - IC50): 2.69 µM
